Test results: PubChem BioAssay (NCI)
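Assay format: 96-well plates, 48-hour exposure. Abbreviation: GI50, concentration required for 50% inhibition of growth. TGI is the concentration that stops growth completely.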

What was measured:
Experiment in all cases: inhibition of tumour cell growth, NCI panel, 48 h
[1] = system: RPMI-8226 leukemia
[2] = system: SW-620 colon
[3] = system: SF-268 CNS
[4] = system: SK-MEL-28 melanoma
[5] = system: LOX IMVI melanoma
[6] = system: UACC-257 melanoma
[7] = system: MCF7 breast
[8] = system: OVCAR-5 ovarian
[9] = system: KM12 colon
[10] = system: MDA-N

| SMILES | TGI [1] [µM] | TGI [2] [µM] | TGI [3] [µM] | TGI [4] [µM] | TGI [5] [µM] | TGI [6] [µM] | TGI [7] [µM] | TGI [8] [µM] | TGI [9] [µM] | TGI [10] [µM] | GI50 [2] [µM] | GI50 [3] [µM] | GI50 [6] [µM] | GI50 [8] [µM] | GI50 [9] [µM] | GI50 [4] [µM] | GI50 [1] [µM] | GI50 [5] [µM] | GI50 [7] [µM] | GI50 [10] [µM] |
| --- | --- | --- | --- | --- | --- | --- | --- | --- | --- | --- | --- | --- | --- | --- | --- | --- | --- | --- | --- | --- |
| C[n+]1cccc(/C=C/c2ccc3cccc(O)c3n2)c1 | > 100 | > 100 | > 100 | > 100 | > 100 | > 100 | > 100 | > 100 | > 100 | > 100 | – | – | – | – | – | – | – | – | – | – |
| CC(C)CNc1nc(N)[nH]c(=O)c1NC=O | > 100 | > 100 | > 100 | > 100 | > 100 | > 100 | > 100 | > 100 | > 100 | > 100 | – | – | – | – | – | – | – | – | – | – |
| COc1ccc(CNc2nc(NCc3ccc(OC)cc3)nc(NC(C)C)n2)cc1 | 5.3 | > 100 | 50 | > 100 | 30.9 | 39.8 | 5.6 | 81.9 | 76.3 | 10.3 | – | – | – | – | – | – | – | – | – | – |
| NCS(=O)(=O)O | > 100 | > 100 | > 100 | > 100 | > 100 | > 100 | > 100 | > 100 | > 100 | > 100 | – | – | – | – | – | – | – | – | – | – |
| Cn1cnc([N+](=O)[O-])c1SCC(=O)O | > 100 | > 100 | > 100 | > 100 | > 100 | > 100 | > 100 | > 100 | > 100 | > 100 | – | – | – | – | – | – | – | – | – | – |
| CCOC(=O)c1c2c(c(O)c3ccccc3c(O)n(-c3ccc(C)cc3)c1C)C(=O)C=CC2=O | 30.3 | 51.5 | > 100 | – | 38.8 | 29.3 | 55.7 | > 100 | 81.7 | – | – | – | – | – | – | – | – | – | – | – |
| COc1cnc2c(c1)C(=O)c1c-2n(CCCN2CCNCC2)c(=O)c2cc(Cl)ccc12 | – | 1.82 | 2.63 | – | – | 4.82 | – | 3.31 | 2.04 | – | 0.0856 | 1.07 | 2.19 | 1.74 | 0.55 | – | – | – | – | – |
| N=C(N)c1ccc(-c2ccc(-c3ccc(Cl)cn3)s2)cc1 | – | – | 39.3 | 3.07 | – | 3.62 | – | 3.04 | – | – | – | 9.67 | 1.8 | 1.58 | – | 1.67 | – | – | – | – |
| CCOC(=O)C1=C(C)N(C)C(=S)NC1c1cccc(O)c1 (stereo not drawn) | > 100 | > 100 | > 100 | > 100 | > 100 | > 100 | > 100 | > 100 | > 100 | 33 | – | – | – | – | – | – | – | – | – | – |
| CC(C)(C)C1CCC2(CC1)CCN(CCCN1CCOCC1)CC2 | 63.8 | > 59.3 | > 100 | 33.2 | > 52.3 | 31.1 | > 100 | > 100 | > 100 | 89.9 | – | – | – | – | – | – | – | – | – | – |
| O=C(c1cc(Br)ccc1O)c1cc(Br)ccc1O | 30.4 | 30.6 | 42.4 | 31.1 | 36.8 | 29.1 | 31.3 | 33.3 | 30.8 | 29.5 | – | – | – | – | – | – | – | – | – | – |
| COc1cc2ccc1-c1cc(ccc1O)CC1c3cc4c(cc3CCN1C)Oc1c(OC)cc3c(c1O4)C(C2)N(C)CC3 (stereo not drawn) | 4.75 | 3.31 | 3.52 | 2.89 | 3.75 | 3.23 | – | 8.86 | 3.32 | – | – | – | – | – | – | – | – | – | – | – |
| CN(C)CCNC(=O)c1cccc2nc3c4ccccc4c4ccccc4c3nc12 | 5.3 | 6.59 | 0.632 | 3.27 | 3.13 | 10.6 | 3.47 | 14.2 | 3.06 | 3.06 | – | – | – | – | – | – | – | – | – | – |
| C[C@H]1CCC/C=C/[C@@H]2C[C@H](O)C[C@H]2[C@H](O)[C@@H](S(=O)CCN)CC(=O)O1 (stereo partly drawn) | 2.71 | – | > 100 | > 100 | 0.101 | > 100 | – | – | – | 5.5 | 0.0576 | – | < 0.0234 | 0.0479 | < 0.0139 | 0.0475 | 0.294 | 0.031 | 0.0316 | 0.0505 |
| Cc1c2ccnc(-c3ccccc3)c2cc2c1[nH]c1ccccc12 | 8.25 | 46.9 | 32.9 | 19.5 | 17.6 | 6.26 | 8.59 | 13.8 | 26 | – | – | – | – | – | – | – | – | – | – | – |
| COc1cc2c(cc1OC)C(Cl)C(c1ccc(Cl)cc1)=C2Cl (stereo not drawn) | 45.6 | 52 | – | 41.4 | 25.5 | – | – | – | – | – | – | – | – | – | – | – | – | – | – | – |
| O=C(CC1(O)C(=O)Nc2ccc(Br)cc21)c1ccc(C(=O)NCC2CCC3(CC2)OOC2(CCCCC2)OO3)cc1 (stereo not drawn) | 4.47 | 13 | 36.5 | 46 | 29 | 29 | 26.5 | 63.8 | 31.2 | – | 2.76 | 6.16 | 10.6 | 13.8 | 3.08 | 11.1 | 1.65 | 1.95 | 3.05 | – |
| Cc1cc(=O)[nH]c(NN2C(Cl)C(=O)C2c2cccc([N+](=O)[O-])c2)n1 (stereo not drawn) | 40.3 | > 100 | > 100 | 47.2 | 26.9 | > 100 | – | > 100 | 80.9 | – | – | – | – | – | – | – | – | – | – | – |
| Cc1ccc(C)c(/C(=N\N=C(N)N)C2CC2)c1 | > 100 | > 100 | > 100 | > 100 | > 100 | > 100 | > 100 | > 100 | > 100 | 59.8 | – | – | – | – | – | – | – | – | – | – |
| COc1ccc(-n2c3c(c4cc(O)ccc42)C(=O)c2ccccc2C3=O)cc1 | > 100 | > 100 | 14.8 | > 100 | 58 | > 100 | > 100 | > 100 | > 100 | > 100 | – | – | – | – | – | – | – | – | – | – |
| Oc1cc(O)cc(/C=C/c2ccc(O)c(O)c2)c1 | > 93.8 | > 51.8 | 56.3 | > 100 | > 41.7 | > 100 | > 56.1 | 20.7 | 11.2 | – | – | – | – | – | – | – | – | – | – | – |
| CN(C)c1ccc(C2CC(=O)C(C#N)=C(c3ccccc3)NN2C)cc1 (stereo not drawn) | > 100 | > 100 | > 100 | > 100 | > 100 | > 100 | – | > 100 | > 100 | – | – | – | – | – | – | – | – | – | – | – |
| CC[C@H](Nc1nc(N)nc(N)c1Cl)c1nc2cccc(NCc3ccc(C(=O)NO)cc3)c2c(=O)n1-c1ccccc1 | 5.92 | 4.71 | 3.69 | 3.21 | 3.17 | 4.92 | 7.2 | 3.36 | 4.62 | – | 1.63 | 1.66 | 1.94 | 1.61 | 2.08 | 1.55 | 2.15 | 1.73 | 2.25 | – |
| Cc1ncc(CO)c(CN)c1O | > 100 | > 100 | > 100 | > 100 | > 100 | > 100 | > 100 | > 100 | > 100 | > 100 | – | – | – | – | – | – | – | – | – | – |
| O=C1c2ccccc2C(=O)c2c(NCCNC(=O)C3CCCN3)ccc(NCCNC(=O)C3CCCN3)c21 (stereo not drawn) | 58.8 | > 100 | > 100 | > 100 | 1.58 | > 100 | > 100 | > 100 | 49.8 | > 100 | – | – | – | – | – | – | – | – | – | – |
